Data as given in the NIST ThermoML archive (doi:10.1021/je8001464).

Assay: mn = molality of the nth substance listed, in mol/kg
Conditions: 101 kPa, Liquid

NCC(=O)O [2-aminoacetic acid] + O
Conditions | mass density [kg/m3]
288.15 K, m1 = 0.07326 | 1001.51
288.15 K, m1 = 0.1458 | 1003.85
288.15 K, m1 = 0.2326 | 1006.63
288.15 K, m1 = 0.2824 | 1008.21
288.15 K, m1 = 0.3277 | 1009.64
288.15 K, m1 = 0.4371 | 1013.07
298.15 K, m1 = 0.1536 | 1001.88
298.15 K, m1 = 0.2528 | 1004.96
298.15 K, m1 = 0.302 | 1006.47
298.15 K, m1 = 0.3469 | 1007.84
298.15 K, m1 = 0.4593 | 1011.25
308.15 K, m1 = 0.07746 | 993.053
308.15 K, m1 = 0.2534 | 998.473
308.15 K, m1 = 0.3017 | 999.939
308.15 K, m1 = 0.3466 | 1001.29
308.15 K, m1 = 0.4586 | 1004.65
318.15 K, m1 = 0.1525 | 994.942
318.15 K, m1 = 0.2564 | 998.093
318.15 K, m1 = 0.3091 | 999.679
318.15 K, m1 = 0.3656 | 1001.36
318.15 K, m1 = 0.4809 | 1004.79

[Cl-].[Cl-].[Zn+2] [zinc chloride] + O
mass density [kg/m3]
Conditions | 288.15 K | 298.15 K | 308.15 K | 318.15 K
m1 = 0.1 | 1011.64 | 1009.38 | 1005.93 | 1002.03
m1 = 0.5 | 1058.86 | 1055.44 | 1047.95 | 1043.29
m1 = 1 | 1113.88 | 1106.55 | 1097.59 | 1090.83
m1 = 1.5 | 1160.53 | 1152.82 | 1142.54 | 1135.27
